The target of assay [1] is T1, Prostaglandin G/H synthase 2 (Homo sapiens, UniProt P35354).
T1 sequence (P35354 whole entry): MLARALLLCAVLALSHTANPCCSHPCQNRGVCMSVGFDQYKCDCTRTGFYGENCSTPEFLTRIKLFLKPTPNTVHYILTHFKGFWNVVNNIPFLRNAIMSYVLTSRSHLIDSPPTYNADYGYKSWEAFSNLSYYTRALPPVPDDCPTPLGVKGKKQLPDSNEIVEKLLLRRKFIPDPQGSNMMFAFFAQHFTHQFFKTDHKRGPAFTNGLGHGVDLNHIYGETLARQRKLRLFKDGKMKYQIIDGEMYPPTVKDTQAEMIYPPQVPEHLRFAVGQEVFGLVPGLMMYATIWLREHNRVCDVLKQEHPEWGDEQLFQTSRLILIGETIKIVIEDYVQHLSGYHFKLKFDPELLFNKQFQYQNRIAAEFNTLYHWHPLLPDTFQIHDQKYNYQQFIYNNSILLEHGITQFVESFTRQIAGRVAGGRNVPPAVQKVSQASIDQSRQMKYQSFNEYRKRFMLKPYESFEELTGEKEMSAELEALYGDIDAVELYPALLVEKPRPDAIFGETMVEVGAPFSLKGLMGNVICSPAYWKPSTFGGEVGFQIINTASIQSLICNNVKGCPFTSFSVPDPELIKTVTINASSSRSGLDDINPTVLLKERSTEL
In words: In vitro inhibitory activity against human Prostaglandin G/H synthase 2 (COX-2).

Assay [2] has as its target Prostaglandin G/H synthase 1 (Homo sapiens, UniProt P23219).
Description: Inhibition of human Prostaglandin G/H synthase 1
The subject of the next assay is Rattus norvegicus. In words: In vivo activity was determined by rat pouch assay at concentration of 2 mg/kg. Format: functional.

The structures appear in SMILES notation. A value given as a limit tells only on which side of the number the result lay.

Chain of Prostaglandin G/H synthase 1 (P23219 whole entry): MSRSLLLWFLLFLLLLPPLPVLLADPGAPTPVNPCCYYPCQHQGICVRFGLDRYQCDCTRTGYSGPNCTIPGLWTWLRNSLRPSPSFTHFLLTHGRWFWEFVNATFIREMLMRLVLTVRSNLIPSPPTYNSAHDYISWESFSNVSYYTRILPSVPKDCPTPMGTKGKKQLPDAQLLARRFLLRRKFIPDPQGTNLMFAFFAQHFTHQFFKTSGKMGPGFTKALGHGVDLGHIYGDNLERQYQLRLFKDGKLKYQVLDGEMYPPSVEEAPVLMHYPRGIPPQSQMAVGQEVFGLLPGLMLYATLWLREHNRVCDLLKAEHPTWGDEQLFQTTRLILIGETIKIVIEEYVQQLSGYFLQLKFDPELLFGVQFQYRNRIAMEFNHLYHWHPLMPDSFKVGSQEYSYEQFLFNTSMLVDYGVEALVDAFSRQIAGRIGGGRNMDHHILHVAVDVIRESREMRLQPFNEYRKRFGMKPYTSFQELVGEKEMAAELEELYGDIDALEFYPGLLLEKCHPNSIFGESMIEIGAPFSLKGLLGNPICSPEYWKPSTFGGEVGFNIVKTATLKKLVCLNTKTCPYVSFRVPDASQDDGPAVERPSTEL

For the molecule `COc1ccc(-c2nc(NCc3ccccc3)sc2-c2ccc(S(N)(=O)=O)cc2)cc1F`, the IC50 – broadly, the concentration needed to halve the response being measured – in assay [1] was 59 nM; in assay [2] it was 0.01 µM.

For the molecule `Cc1nc(-c2ccc(S(N)(=O)=O)cc2)c(-c2ccccc2)s1`, the IC50 in assay [1] stood at 29 nM; in assay [2] it was 72.5 µM. Besides, the inhibition in vivo (in general, how much of the control response was suppressed) at 2 mg/kg in the assay on Rattus norvegicus was determined as 7%.

Take `Cc1nc(-c2ccc(S(N)(=O)=O)cc2)c(-c2ccc(Cl)cc2)s1`: the values for the IC50 in assay [1] and in assay [2] were 18 nM and 35.6 µM, respectively. In the assay with Rattus norvegicus, the inhibition in vivo at 2 mg/kg came to 30%.

On to `Cc1nc(-c2ccccc2)c(-c2ccc(S(N)(=O)=O)cc2)s1`, for which the IC50 amounted to 38 nM in assay [1] and 34 µM in assay [2]. In the assay with Rattus norvegicus, the inhibition in vivo at 2 mg/kg came to 59%.

On to `NS(=O)(=O)c1ccc(-c2sc(-c3ccccc3Cl)nc2-c2ccc(F)cc2)cc1`, for which the IC50 in assay [1] was 13 nM; in assay [2], 0.08 µM. In the assay on Rattus norvegicus, this molecule registered an inhibition in vivo at 2 mg/kg of 50%.

With `NS(=O)(=O)c1ccc(-c2sc(COc3cc(Cl)cc(Cl)c3)nc2-c2ccc(F)cc2)cc1`, in assay [2], inhibition was half-maximal at 0.12 µM (IC50).

For `COc1ccc(-c2nc(-c3ccccc3Cl)sc2-c2ccc(S(N)(=O)=O)cc2)cc1F`, the IC50 in assay [1] is 2480 nM; in assay [2], greater than 100 µM. This molecule also had an inhibition in vivo at 2 mg/kg with Rattus norvegicus of 33%.

For `Cc1nc(-c2ccc(Cl)cc2)c(-c2ccc(S(N)(=O)=O)cc2)s1`, the figures for the IC50 in assay [1] and in assay [2] were 5 nM and 1.84 µM, respectively. In the assay on Rattus norvegicus, this molecule had an inhibition in vivo at 2 mg/kg of 42%.

In the case of `Cc1nc(-c2ccc(S(N)(=O)=O)cc2)c(-c2ccc(Br)cc2)s1`, the figures for the IC50 in assay [1] and in assay [2] were 24 nM and 115 µM, respectively.

Regarding `COc1ccc(-c2nc(C)sc2-c2ccc(S(N)(=O)=O)cc2)cc1F`, the results for the IC50 in assay [1] and in assay [2] were 28 nM and 4.18 µM, respectively.

The values are drawn from ChEMBL document CHEMBL1131679, “Synthesis and activity of sulfonamide-substituted 4,5-diaryl thiazoles as selective cyclooxygenase-2 inhibitors” (Bioorg Med Chem Lett, 1999).
